The values below come from US20220378923A1, “BET DEGRADER” (KYOWA KIRIN CO., LTD., priority 2019, published 2022).

One assay has as its system DCAF16 KO SU-DHL-4 cells. As to the kind of experiment: Inhibitory effect on cell viability using SU-DHL-4 DCAF16 knock out (KO) cell line (Test Example 6). The assay is classed as cell-based, human. As to conditions: for Activity Attenuation Ratio: (SU-DHL-4 DCAF16 KO IC50)/(SU-DHL-4 WT IC50); for IC50: DCAF16 KO SU-DHL-4 cells, 72 hours, Cell Counting Kit-8, 50% inhibition of cell viability. The method, boiled down:
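SU-DHL-4 DLBCL cells carrying lentiviral Cas9 plus DCAF16-targeting sgRNA (three KO strains; non-targeting control strain), seeded 2000 cells/well, pre-cultured 18–25 h, then given 9-step compound dilutions (0.1% DMSO final) for 72 h at 37° C. Viability read by CCK-8 colorimetric assay.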
(Formazan colour is commonly taken as a measure of viable cells.)

Another assay deals with SU-DHL-4 cells. The assay can be described thus: Inhibitory effect on cell viability in SU-DHL-4 cell line (Test Example 1). The assay is classed as cell-based, human. As to conditions: 72 hours; for IC50: SU-DHL-4 (wild type) cells, calculated using the measurement results of test example 1, read-out: SU-DHL-4 WT IC50; for IC90: SU-DHL-4 cells, Cell Counting Kit-8, concentration showing 90% inhibition of cell viability, read-out: SU-DHL-4 Cell Viability Inhibition Rate IC90. A digest of the protocol: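 SU-DHL-4 cells were grown at 37° C. under 5% CO2 in RPMI1640 with 10 vol % heat-inactivated FBS plus penicillin/streptomycin, seeded and precultured for 18 to 25 hours, then exposed to test compound at 0.1 vol % DMSO for 72 hours. Viability was read with Cell Counting Kit-8 by absorbance at 450 nm.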

Read-outs that look alike come from different tables or passages of the source.

One may read the IC50 as the concentration at which inhibition is half-maximal. Regarding `CCC(=O)N1c2ccccc2[C@H](Nc2ccc(NC(=O)CCCC(=O)Nc3ccc(N[C@@H]4C[C@H](C)N(C(=O)CC)c5ccccc54)nc3)cc2)C[C@@H]1C` [Compound 10k, N^1-(4-(((2S,4R)-2-Methyl-1-propionyl-1,2,3,4-tetrahydroquinolin-4-yl)amino)phenyl)-N^5-(6-(((2S,4R)-2-methyl-1-propionyl-1,2,3,4-tetrahydroquinolin-4-yl)amino)pyridin-3-yl)glutaramide], the “Activity Attenuation Ratio” value in the assay with DCAF16 KO SU-DHL-4 cells came out at 672. Moreover, the IC50 in the assay on DCAF16 KO SU-DHL-4 cells (Homo sapiens) is 143 nM; with SU-DHL-4 cells (Homo sapiens) it was 0.21 nM.
Taken in the same sequence, the figures for `CCC(=O)N1c2ccccc2[C@H](Nc2ccc(-c3nnc(CNC(=O)C4CCN(Cc5cc(O)cc(-c6c(C)noc6C)c5)CC4)o3)cc2)C[C@@H]1C` [Compound 12a, 1-(3-(3,5-Dimethylisoxazol-4-yl)-5-hydroxybenzyl)-N-((5-(4-(((2S,4R)-2-methyl-1-propionyl-1,2,3,4-tetrahydroquinolin-4-yl)amino)phenyl)-1,3,4-oxadiazol-2-yl)methyl)piperidine-4-carboxamide] were 693, 354 nM and 0.51 nM.
In the same order, the values of `CCC(=O)N1c2ccccc2[C@H](Nc2ccc(NC(=O)C3CN(C(=O)C4CCN(Cc5cc(O)cc(-c6c(C)noc6C)c5)CC4)C3)cc2)C[C@@H]1C` [Compound 12b, 1-(1-(3-(3,5-Dimethylisoxazol-4-yl)-5-hydroxybenzyl)piperidine-4-carbonyl)-N-(4-(((2S,4R)-2-methyl-1-propionyl-1,2,3,4-tetrahydroquinolin-4-yl)amino)phenyl)azetidine-3-carboxamide] are over 3526, over 10000 nM and 2.83 nM.
Broadly, the IC90 is the point of the concentration-response curve where the effect stands at 90%. With `CCC(=O)N1c2ccccc2[C@H](Nc2ccc(NC(=O)CCCC(=O)NC3CCN(Cc4cc(O)cc(-c5c(C)noc5C)c4)CC3)cc2)C[C@@H]1C` [Compound 12c, N^1-(1-(3-(3,5-Dimethylisoxazol-4-yl)-5-hydroxybenzyl)piperidin-4-yl)-N^5-(4-(((2S,4R)-2-methyl-1-propionyl-1,2,3,4-tetrahydroquinolin-4-yl)amino)phenyl)glutaramide], in the assay on DCAF16 KO SU-DHL-4 cells, the “Activity Attenuation Ratio” value is reported as over 44436. In addition, the half-maximal inhibitory concentration (IC50) in the assay on DCAF16 KO SU-DHL-4 cells (Homo sapiens) was over 10000 nM. In the assay with SU-DHL-4 cells (Homo sapiens), the IC50 was 0.22 nM and the 90% effect concentration (IC90) worked out at 0.56 nM.
Turning to `CCC(=O)N1c2ccccc2[C@H](Nc2ccc(SCCNC(=O)c3ccc(C4=N[C@@H](CC(=O)OCCN(C)C)c5nnc(C)n5-c5sc(C)c(C)c54)cc3)cc2)C[C@@H]1C` [Compound 13a, 2-(Dimethylamino)ethyl 2-((S)-2,3,9-trimethyl-4-(4-((2-((4-(((2S,4R)-2-methyl-1-propionyl-1,2,3,4-tetrahydroquinolin-4-yl)amino)phenyl)thio)ethyl)carbamoyl)phenyl)-6H-thieno[3,2-f][1,2,4]triazolo[4,3-a][1,4]diazepin-6-yl)acetate], the “Activity Attenuation Ratio” value in the assay with DCAF16 KO SU-DHL-4 cells is recorded as 35. The half-maximal inhibitory concentration (IC50) in the assay with DCAF16 KO SU-DHL-4 cells (Homo sapiens) was 9.31 nM; with SU-DHL-4 cells (Homo sapiens), 0.26 nM.
Take `CCC(=O)N1c2ccccc2[C@H](Nc2ccc(C(=O)NCCCNC(=O)c3ccc(C4=N[C@@H](CC(=O)OC5CCC(O)CC5)c5nnc(C)n5-c5sc(C)c(C)c54)cc3)cc2)C[C@@H]1C` (stereo partly drawn) [Compound 13d, 4-Hydroxycyclohexyl 2-((S)-2,3,9-trimethyl-4-(4-((3-(4-(((2S,4R)-2-methyl-1-propionyl-1,2,3,4-tetrahydroquinolin-4-yl)amino)benzamide)propyl)carbamoyl)phenyl)-6H-thieno[3,2-f][1,2,4]triazolo[4,3-a][1,4]diazepin-6-yl)acetate]: in the assay on DCAF16 KO SU-DHL-4 cells, the “Activity Attenuation Ratio” value turned out to be 52 and the IC50 came to 27.8 nM. Besides, in the assay on SU-DHL-4 cells, the IC50 was 0.53 nM and the IC90 was 1.19 nM.
For `CCC(=O)N1c2ccccc2[C@H](Nc2ccc(C(=O)NCCCNC(=O)c3ccc(C4=N[C@@H](CC(=O)OCCCOC)c5nnc(C)n5-c5sc(C)c(C)c54)cc3)cc2)C[C@@H]1C` [Compound 13h, 3-Methoxypropyl 2-((S)-2,3,9-trimethyl-4-(4-((3-(4-(((2S,4R)-2-methyl-1-propionyl-1,2,3,4-tetrahydroquinolin-4-yl)amino)benzamide)propyl)carbamoyl)phenyl)-6H-thieno[3,2-f][1,2,4]triazolo[4,3-a][1,4]diazepin-6-yl)acetate], in the assay on DCAF16 KO SU-DHL-4 cells, the “Activity Attenuation Ratio” value is reported as 76 and inhibition was half-maximal at 22.8 nM (IC50). In the assay with SU-DHL-4 cells, the IC50 was 0.3 nM and the concentration for an effect of 90% (IC90) was 0.34 nM.
With `CCC(=O)N1c2ccccc2[C@H](Nc2ccc(-c3cnn(CC(=O)Nc4ccc(C5=NCc6nnc(C)n6-c6sc(C)c(C)c65)cc4)c3)cc2)C[C@@H]1C` [Compound 14a, 2-(4-(4-(((2S,4R)-2-Methyl-1-propionyl-1,2,3,4-tetrahydroquinolin-4-yl)amino)phenyl)-1H-pyrazol-1-yl)-N-(4-(2,3,9-trimethyl-6H-thieno[3,2-f][1,2,4]triazolo[4,3-a][1,4]diazepin-4-yl)phenyl)acetamide], the “Activity Attenuation Ratio” value with DCAF16 KO SU-DHL-4 cells is 228. Moreover, the IC50 is 4 nM in the assay with DCAF16 KO SU-DHL-4 cells (Homo sapiens) and 0.017 nM in the assay with SU-DHL-4 cells (Homo sapiens).
In the same order, the values of `CCC(=O)N1c2ccccc2[C@H](Nc2ccc(NC(=O)COCC(=O)Nc3ccc(C4=NCc5nnc(C)n5-c5sc(C)c(C)c54)cc3)cc2)C[C@@H]1C` [Compound 14d, N-(4-(((2S,4R)-2-Methyl-1-propionyl-1,2,3,4-tetrahydroquinolin-4-yl)amino)phenyl)-2-(2-oxo-2-((4-(2,3,9-trimethyl-6H-thieno[3,2-f][1,2,4]triazolo[4,3-a][1,4]diazepin-4-yl)phenyl)amino)ethoxy)acetamide] are 96, 9.61 nM and 0.1 nM.
Taken in the same sequence, the figures for `Cc1sc2c(c1C)C(c1ccc(NC(=O)C#CCNC(=O)c3ccc(C4=NCc5nnc(C)n5-c5sc(C)c(C)c54)cc3)cc1)=NCc1nnc(C)n1-2` [Compound 14e, N-(4-Oxo-4-((4-(2,3,9-trimethyl-6H-thieno[3,2-f][1,2,4]triazolo[4,3-a][1,4]diazepin-4-yl)phenyl)amino)but-2-yn-1-yl)-4-(2,3,9-trimethyl-6H-thieno[3,2-f][1,2,4]triazolo[4,3-a][1,4]diazepin-4-yl)benzamide] were 332, 68.3 nM and 0.21 nM.
Taken in the same sequence, the figures for `CCC(=O)N1c2ccccc2[C@H](Nc2ccc(NC(=O)CNC(=O)Nc3ccc(C4=NCc5nnc(C)n5-c5sc(C)c(C)c54)cc3)cc2)C[C@@H]1C` [Compound 14f, N-(4-(((2S,4R)-2-Methyl-1-propionyl-1,2,3,4-tetrahydroquinolin-4-yl)amino)phenyl)-2-(3-(4-(2,3,9-trimethyl-6H-thieno[3,2-f][1,2,4]triazolo[4,3-a][1,4]diazepin-4-yl)phenyl)ureido)acetamide] were 22, 2.95 nM and 0.14 nM.
Turning to `Cc1sc2c(c1C)C(c1ccc(C(=O)N3CCC(NC(=O)c4ccc(C5=N[C@@H](CC(=O)OC(C)(C)C)c6nnc(C)n6-c6sc(C)c(C)c65)cc4)CC3)cc1)=NCc1nnc(C)n1-2` [Compound 14p, tert-Butyl (S)-2-(2,3,9-trimethyl-4-(4-((1-(4-(2,3,9-trimethyl-6H-thieno[3,2-f][1,2,4]triazolo[4,3-a][1,4]diazepin-4-yl)benzoyl)piperidin-4-yl)carbamoyl)phenyl)-6H-thieno[3,2-f][1,2,4]triazolo[4,3-a][1,4]diazepin-6-yl)acetate], the “Activity Attenuation Ratio” value in the assay on DCAF16 KO SU-DHL-4 cells worked out at 408. The IC50 is 407 nM in the assay on DCAF16 KO SU-DHL-4 cells (Homo sapiens) and 1 nM in the assay with SU-DHL-4 cells (Homo sapiens).
